Three substances from patent US20210213135A1 (Purdue Research Foundation, priority 2018, published 2021) can be followed below.

Primed or numbered codes have the meaning given here. Where no end group is shown, it is not given here. [ ]: non-standard residue; d: D form. mp4″ = 4 mini PEG linker (mini-PEG spacer)

The subject of assay [1] is Swiss Webster fracture-bearing mice (healed femur). In words: postmortem 4 point bend of the healed femur. In kind it is in vivo. The note with it: for Max load (peak load) / Work to fracture: 17 days, 0.1, 1 and 10 nmol daily s.c., n=5. From the text: All in vivo data included herein are from Swiss Webster mice. All mice received an osteotomy on their right femur and received subcutaneous drug administration daily for either 2,3 or 4 weeks, or 17 days, as indicated, for each compound. 1× concentration represents 1 nmol/day, 10× represents 10 nmol/day, 100× represents 100 nmol/day most studies have an n of 5.
The term “Peak Load” means a postmortem 4 point bend of the healed femur. Peak load represents the maximum force the healed femur withstood before it refractured.
The targeted conjugates were synthesized using standard Fmoc solid-phase peptide synthesis, as described above. To ensure the conjugates' activity, mouse pre-osteoblast ([…]) cells were treated with the targeted and untargeted compounds for three days at concentrations from 1 pM to 100 nM. After three days of treatment, the cells were harvested, and the RNA was purified from the cells. Expression levels of ALP, RUNx2 (transcription factor for osteoblast differentiation), osterix (OSX), osteopontin (OPN), collagen 1A (Col-1A), OPG, RANKL, sclerostin gene (SOST), and OC were quantified via quantitative reverse transcription polymerase chain reaction (RT-qPCR). Once the biological activity of the conjugates was confirmed, they were tested in vivo in a fracture model. Aseptic surgical techniques were used to place a 23-gage needle as in intramedullary nail in the femur of anesthetized, 12-week-old Swiss Webster mice for internal fixation before fracture. Femur fractures were induced using a drop weight fracture device from RISystem. The mice received buprenorphine for three days post fracture. The mice were dosed subcutaneously each day for three weeks or 17 days. Fracture healing was assessed using microCT (Scanco Medical Ag). Morphometric parameters were quantified in the 100 widest slices of the fracture callus. Trabecular thickness (Tb.Th.), trabecular spacing (Tb.Sp.), total volume (TV), and volume of calcified callus (BV) were calculated. Fractured femurs were tested for strength in a four-point bend to failure using an Electro Force TestBench (TA Instruments). Lower supports were 10 mm apart on the anterior face of the femur in contact with the proximal and distal diaphysis. Upper supports were 4 mm apart and spanned the entire fracture callus on the diaphysis. Force was applied from the posterior face of the femur with a displacement rate of 0.3 mm/sec. Peak load, yield load, stiffness, displacement post yield, work to fracture, and deformation data were generated. Statistical analysis was performed using a two-way analysis of variance (ANOVA) and a Tukey post-hoc analysis with significance reported at the 95% confidence level. All animal experiments were performed in accordance with protocols approved by Purdue University's Institutional Animal Care and Use Committee (IACUC).

In assay [2] the test system is Swiss Webster fracture-bearing mice (fracture callus). In words: micro CT of the fracture callus in the femur fracture model. In kind it is in vivo.
Setting [3] is: 17 days, 0.1, 1 and 10 nmol daily s.c., n=5.

As for “PHSRN_mp4_(D)E10: SEQ ID NO: 28, fibronectin peptide PHSRN with (D)e10 targeting ligand attached to N terminus via minipeg spacer (H[dE][dE][dE][dE][dE][dE][dE][dE][dE][dE][mp4″]PHSRN)”, in assay [1], the “Max load (peak load)” value is recorded as “raises bone strength” and the Work to fracture entry is “raises bone strength”. For the same substance, in assay [2] (setting [3]), the “BV (bone volume)” value was “raises bone mineralization” and the BV/TV result is given as “raises bone density”.
“SPARC113_mp4_(D)E10: SEQ ID NO: 30, SPARC residues 113-127 conjugated via 4 minipegs with 10 glutamic acids (H[dE][dE][dE][dE][dE][dE][dE][dE][dE][dE][mp4″]TLEGTKKGHKLHLDY)”: in assay [1], the “Max load (peak load)” value is recorded as “raises bone strength” and the Work to fracture result is on record as “raises bone strength”. Further, in assay [2] (setting [3]), the “BV (bone volume)” value is reported as “raises bone mineralization” and the BV/TV result was “raises bone density”.
On to “substance P D10: SEQ ID NO: 4, substance P with 4 mini PEG linker and conjugated with 10 aspartate acids (DDDDDDDDDDRPKPQQFFGLM; 4 mini PEG linker; substance P 4 mini PEG D10 with; (10)..(11) 4 mini PEG linker)”, for which the “Peak load (max load) of healed femur” value in assay [1] (4 weeks, printed dose 0×) is 30-35 Newtons. In assay [2] (4 weeks, 1, 10 and 100 nmol/day), the BV/TV result was “dose dependent manner”.
